Non-standard residues stand in square brackets, D forms with d. Residues, ends and D or L forms follow the SMILES beside them. *: point of attachment. Isonicotinoyl = O=C(c1ccncc1)*; Cbz = O=C(OCc1ccccc1)*
Tests used:
[1] = system: guinea pig pancreatic acini; conditions: cited from earlier work
[2] = system: mouse Swiss 3T3-fibroblast cells; type: cell-based; conditions: 3 h
Description: (b) An in vitro assay which assesses the ability of a test compound to inhibit the Neuromedin C stimulated mitogenesis of mouse Swiss 3T3-fibroblast cells as determined by the uptake of [^3 H]-thymidine. The test is similar to those described by N. Corps., L. Rees and K. Brown, Biochem. Journal, 1985, 231, 781 and I. Zachary and E. Rozengurt, Proc. Nat. Acad. Sci. USA, 1985, 82, 7616, except that GRP (18-27) (0.2 or 0.4nM) was used to stimulate growth and the test compounds were dissolved in an assay medium containing 0.1% bovine serum albumin and 0.4% dimethylsulphoxide and […]

[3] = system: bombesin-induced stimulation of the secretion of the enzyme amylase; conditions: rat, in vivo
Description: (c) An in vivo test involving the measurement of the antagonism of the bombesin-induced stimulation of the secretion of the enzyme amylase into the pancreatic duct of the rat by a test compound administered orally, sub-cutaneously or intravenously. Bombesin and the test compound can be administered concomitantly or the test compound can be predosed at any convenient interval, for example 30, 60, 90, 120, 150 or 180 minutes, before bombesin is dosed. Amylase was measured by analysis of the conversion of starch into maltose, on incubation of the starch/amylase mixture at 30° C. for 15 minutes, using a spectrophotometric assay as originally described by P. Bernfield in `Methods in Enzymology` Vol. I, p17 (Editors Colowick and Kaplan, Academic Press, New York, 1955). Bombesin (5 micrograms/kg, intravenously) causes a large, but submaximal, increase of amylase secretion within 30 minutes.

[4] = target: T1, bombesin receptor of mouse Swiss 3T3-fibroblast cells (Mus musculus, UniProt P21729); assay: Test (a): in vitro binding assay, displacement of [I125]GRP; conditions: ambient temperature, 1 hour
T1 construct: the bombesin receptor of mouse Swiss 3T3-fibroblast cells; endogenous in cells; host or cells: mouse Swiss 3T3 fibroblast cells
T1 sequence (P21729 whole entry): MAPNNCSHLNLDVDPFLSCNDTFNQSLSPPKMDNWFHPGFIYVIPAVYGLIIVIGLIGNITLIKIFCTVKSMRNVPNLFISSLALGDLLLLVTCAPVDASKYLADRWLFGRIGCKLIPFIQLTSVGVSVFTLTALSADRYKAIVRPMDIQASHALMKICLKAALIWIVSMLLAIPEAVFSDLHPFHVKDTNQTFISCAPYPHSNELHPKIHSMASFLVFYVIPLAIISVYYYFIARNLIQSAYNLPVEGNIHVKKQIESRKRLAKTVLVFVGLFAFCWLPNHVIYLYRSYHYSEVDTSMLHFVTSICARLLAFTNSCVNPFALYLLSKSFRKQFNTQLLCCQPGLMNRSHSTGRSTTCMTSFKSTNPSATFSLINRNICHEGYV
Description: (a) An in vitro binding assay which assesses the ability of a test compound to displace radiolabelled gastrin releasing peptide ([I^125 ]GRP) from the bombesin receptor of mouse Swiss 3T3-fibroblast cells. The test is similar to that described by I. Zachary and E. Rozengurt, Proc. Nat. Acad. Sci. USA, 1985, 82, 7616, except that the cells are incubated at ambient temperature for 1 hour;

[5] = system: bombesin-induced hypothermia; conditions: rat; cited from earlier work

Molecule	inhibition of bombesin-stimulated secretion of amylase [1]	IC50 [2]	IC50 in test (c) [3]	further results
[Tyr^4, D--Phe^12 ]bombesin	inhibited			
[D--Phe^12, Leu^14 ]bombesin	inhibited			
CNC(=O)[C@H](CC(C)C)NC(=O)[C@H](CCCCNC(=O)OCc1ccccc1)NC(=O)[C@@H](C)NC(=O)[C@@H](NC(=O)[C@H](C)NC(=O)[C@H](Cc1c[nH]c2ccccc12)NC(=O)[C@H](Cc1c[nH]cn1)NC(=O)c1ccncc1)C(C)C [4-Pyridyl-CO--His--Trp--Ala--Val--D-Ala--Lys(Z)--Leu--NHMe] (Isonicotinoyl-HWAV[dA]K(Cbz)L-NHMe)		0.2 nM	< 0.02 mg/kg	
COC(=O)[C@H](CC(C)C)NC(=O)[C@H](Cc1c[nH]cn1)NC(=O)[C@@H](C)NC(=O)[C@@H](NC(=O)[C@H](C)NC(=O)[C@H](Cc1c[nH]c2ccccc12)NC(=O)[C@H](Cc1c[nH]cn1)NC(=O)c1ccncc1)C(C)C [4-Pyridyl--CO--His--Trp--Ala--Val--D--Ala--His--Leu--OMe] (Isonicotinoyl-HWAV[dA]HL-OMe)		0.7 nM	< 0.5 mg/kg	IC50 [4]: 1.5 nM
[D--Glp^7, D--Ala^11, Ala^14 ]bombesin (7-14)				antagonism of bombesin-induced hypothermia [5]: partial antagonist
[D-Phe^12 ]bombesin	inhibited			

Reference: patent publication US5081107A, “Polypeptide compounds” (Imperial Chemical Industries PLC, priority 1988, dated 1992)
